Laboratory results published in the NIST ThermoML archive (doi:10.1021/acs.jced.6b00497).
± gives the expanded uncertainty stated by the source.

Conditions: Crystal; DTA

Normal melting temperature: 220.00 ± 1 °C
SMILES: O=C(O)c1cc(N=Nc2ccc(S(=O)(=O)Nc3ccccn3)cc2)ccc1O [Sulfasalazine]
